Reference: PMC10818546, “CYP1-Activation and Anticancer Properties of Synthetic Methoxylated Resveratrol Analogues” (Molecules, 2024)
Where two headings read alike, the source gives them in different places.

Experiments:
MCF10A = experiment: MTT cytotoxicity assay, MCF10A non-tumour control cells; format: cell-based; details: Homo sapiens, MCF-10A, read-out: IC50 MCF10A
Experimental: (§1) The antiproliferative activity of the resveratrol analogues was investigated using a human breast cell line panel, which has been characterised for CYP1 expression in our laboratories. IC50 values for both cis- and trans-isomers were determined using a standard 3-[4,5-dimethylthiazol-2-yl]-2,5-diphenyl tetrazolium bromide (MTT) cell viability assay and are shown in Table 1 (trans-stilbene analogues) and Table 2 (cis-stilbene analogues).
MCF10A cells are non-tumourigenic human mammary epithelial in origin which have been spontaneously immortalised without chemical intervention. CYP1 activity in MCF10A cells is negligible. […] Thus, MCF10A cell line is commonly used as a control in cytotoxicity assays.
(§2) A standard MTT (3-[4,5-dimethylthiazol-2-yl]-2,5-diphenyl tetrazolium bromide) cell viability assay was employed to evaluate the cytotoxicity of the stilbenes prepared. The MTT assay is a rapid quantitative spectrophotometric method for determining cell growth (viability) due to necrosis or apoptosis in monolayer-cultured cell lines in response to external factors. It is widely employed to evaluate the cytotoxicity of potential medicinal agents.
(§3) MCF7 cells were grown in RPMI-1640 medium with phenol red and 10% (v/v) heat-inactivated (heated to 56 °C for 45 min) foetal calf serum. MDA-468 cells were grown in RPMI-1640 medium with 10% (v/v) heat-inactivated foetal calf serum and L-glutamine (2 mM) without phenol red. MCF-10A cells were grown in Dulbecco’s modified Eagle’s medium/ Ham’s F-12 medium (1:1) with 5% (v/v) heat-inactivated foetal calf serum, epidermal growth factor (20 ng/mL), insulin ([…]) and hydrocortisone (500 ng/mL). Cells were maintained at 37 °C, 5% CO2/95% air with 100% humidity and passaged every 2–3 days using trypsin EDTA solution (0.25% w/v). Adhered cells at sub confluence were harvested for experimental use.
(§4) Aliquots of cell suspensions (100 µL at 2 × 10^3 cells per ml) were dispensed into sterile 96-well microtiter flat-bottomed plates. For the MDA468 and MCF10A cell lines, the plates were incubated at 37 °C, 5% CO2/95% air with 100% humidity for 24 h prior to the addition of test compounds. For MCF7 cells, after allowing approximately 4 h for cells to adhere, 100 µL of medium containing TCDD (from 100 mM stock in DMSO) or medium with 0.2% (v/v) DMSO was added to give a final concentration of 10 nM TCDD and 0.1% (v/v) DMSO. After 24 h, the medium was aspirated and replaced with fresh medium (100 µL) before the addition of test compounds.
(§5) Then, 100 µL aliquots of test compounds were added within 30 min into the wells from a 100 mM stock solution in DMSO and serially diluted to give final concentrations of […], 0.01, 0.003, 0.001 and 0.0003 µM. […] The cells were allowed to grow for 96 h at 5% CO2, 37 °C, to give 80–90% confluence in the control wells, after which 50 µL of 2 mg/mL MTT (final concentration 0.4 mg/mL) in sterile phosphate buffer was added to each well and the plates were further incubated for 2 h. All medium was aspirated and the formazan precipitate generated by viable cells was solubilised by 150 µL of DMSO. All the plates were vortexed and the absorbance at 540 nm was determined using a SpectraMax M5 plate reader (Molecular Devices, Wokingham, UK).
(§6) Results were expressed as a percentage of the control value versus the negative logarithm of the molar drug concentration range using GraphPad Prism (Version 5.00). Relative toxicities of each compound within each cell line were expressed as 50% of growth inhibition (IC50). All determinations were carried out in quadruplicate.

MDA468 = experiment: MTT cytotoxicity assay, MDA468 cells; format: cell-based, human; details: for IC50: Homo sapiens, read-out: IC50 MDA468; for TS = tumour selectivity = IC50 MCF10A/IC50 MDA468: ratio of IC50 values
Experimental: as §1
MDA468 cells represent an aggressive multi-drug-resistant tumour type and are ER negative but are aryl hydrocarbon (Ah) receptor positive in the presence of TCDD [46].
as §2, §3, §4, §5, §6

MCF7 (TCDD) = experiment: MTT cytotoxicity assay, TCDD-induced MCF7 cells; format: cell-based, human
Experimental: as §1
(§7) MCF7 cells are both ER positive and Ah receptor positive and have been well documented for their CYP1 expression, and it is known that treatment with TCDD elevates CYP1A1 and CYP1B1 expression. The cells were treated with DMSO (0.1%) for 24 h for constitutive expression, whereas for inducible CYP1 expression, the cells were treated with TCDD (10 nM) for 24 h.
as §2, §3, §4, §5, §6

MCF7 = experiment: MTT cytotoxicity assay, MCF7 cells (uninduced); format: cell-based, human; details: read-out: IC50 MCF7
Experimental: as §1, §7, §2, §3, §4, §5, §6

[1] = 96 h, MTT assay, 96 h incubation, non-tumour control cells
[2] = Homo sapiens, MCF7, MTT assay, 96 h incubation, cells induced with 10 nM TCDD for 24 h, read-out: IC50 MCF7 (TCDD)
[3] = Homo sapiens, MCF7, 96 h, MTT assay, 96 h incubation, 37 °C, means of quadruplicate
[4] = MTT assay, 96 h incubation, non-tumour control cells
[5] = Homo sapiens, MCF7, MTT assay, 96 h incubation, 37 °C, means of quadruplicate

Structure (SMILES)	IC50 (MCF10A; [1]) [µM]	IC50 (MDA468; MTT assay, 96 h incubation) [µM]	IC50 (MCF7 (TCDD); [2]) [µM]	IC50 (MCF7; [3]) [µM]	TS = tumour selectivity = IC50 MCF10A/IC50 MDA468 (MDA468)	IC50 (MCF10A; [4]) [µM]	IC50 (MCF7; [5]) [µM]	also measured
COc1ccc(/C=C\c2cccc(C)c2)cc1 [DMU216C]	> 100	> 100	30	26				
COc1ccc(CCc2cc(OC)c(OC)c(OC)c2)cc1 [DMU224]	0.06	0.005	0.06	0.06				
COc1ccc(/C=C/c2ccc(OC)cc2)cc1 [DMU205]	100	100	28	28	1			
COc1ccc(/C=C\c2cc(OC)c(OC)c(OC)c2)cc1 [DMU213]					four			IC50 (MCF10A; 96 h): 2 µM; fold less toxic to MDA-468 compared to DMU212 (MDA468): 500 fold; IC50 (MDA468; 96 h): 0.5 µM; TS = tumour selectivity = IC50 MCF10A/IC50 MDA468 (MDA468; listed as 213): 4; IC50 (MCF7 (TCDD); Homo sapiens, MCF7, read-out: IC50 MCF7 (TCDD)): 0.44 µM; IC50 (MCF7; Homo sapiens, MCF7, 96 h): 2.5 µM
Oc1ccc(/C=C/c2cc(O)cc(O)c2)cc1 [Resveratrol, (E)-4,3′,5′-trihydroxy stilbene]		29	33		1.7	50	31	
COc1cc(/C=C/c2ccc(Br)cc2)cc(OC)c1OC [DMU557]		7	8		3	20	7	
COc1cc(/C=C/c2ccc(Cl)cc2)cc(OC)c1OC [DMU555]		12	100		0.7	8	100	
COc1ccc(/C=C/c2cc(OC)c(O)c(OC)c2)cc1O [DMU293]	110	10	100	100	10			
COc1ccc(/C=C/c2cc(OC)cc(OC)c2)cc1 [DMU271]		> 100	14			> 100	14	
COc1cc(/C=C/c2ccc(O)cc2)cc(OC)c1OC [DMU281]	23	3.6	28	30	6			
COc1ccc2cc(/C=C/c3cc(OC)c(OC)c(OC)c3)ccc2c1 [DMU567]	0.11	0.04	42	100	three			TS = tumour selectivity = IC50 MCF10A/IC50 MDA468 (MDA468; listed as 567): 3
COc1ccc(/C=C\c2cccc(OC)c2)cc1 [DMU241C]		> 100	26			> 100	29	
COc1cc(/C=C\c2ccc3c(c2)OCO3)cc(OC)c1OC [DMU299]		20	0.05		one	20	0.05	TS = tumour selectivity = IC50 MCF10A/IC50 MDA468 (MDA468; listed as 299): 1; AF = activation factor = IC50 MCF7/MCF7 (TCDD) (MCF7 (TCDD); ratio of IC50 values): one
COc1ccc(/C=C\c2ccc(OC)cc2)cc1 [DMU265]	> 100	> 100	20	25				
COc1ccc(/C=C\c2cc(OC)c(OC)c(OC)c2)c(OC)c1 [DMU222]	0.06	0.005	0.005	0.06	10			IC50 (MCF7 (TCDD); MTT assay, 96 h incubation, cells induced with 10 nM TCDD for 24 h, read-out: IC50 MCF7 (TCDD)): 0.007 µM; IC50 (MCF7; MTT assay, 96 h incubation, 37 °C, means of quadruplicate): 0.07 µM
COc1cc(/C=C\c2ccc(Cl)cc2)cc(OC)c1OC [DMU556]		7	0.8		5	35	0.8	
COc1ccc(/C=C\c2ccc(OC)c(OC)c2OC)cc1 [DMU548]		30	7.1			100	8	
COc1cc(/C=C\c2ccc(I)cc2)cc(OC)c1OC [DMU510]	0.01	0.006	0.06	0.06	2			
COc1cc(/C=C/c2ccc3c(c2)OCO3)cc(OC)c1OC [DMU220]		0.99	2.3		four	3.9	3.4	TS = tumour selectivity = IC50 MCF10A/IC50 MDA468 (MDA468; listed as 220): 4
